Experimental data from patent US5196437A, “Method for treating hepatic diseases and regenerating liver tissue using FK 506 and related compounds” (Fujisawa Pharmaceutical Company, Ltd., priority 1990, dated 1993).

How the values were obtained:
midzonal hepatocytes = assay: Eck fistula dogs, left portal vein infusion: electron microscopy of hepatocyte organelles; format: in vivo, dog (beagle)
Experimental: (§1) Twenty adult female beagle dogs underwent Eck fistula (Starzl et al, Lancet, 1976, 1:821-25). After performing a large side to side portacaval shunt, the left and right portal vein branches were ligated. A small infusion catheter was tied into the left branch and led through the abdominal wall and subcutaneously to a battery charged infusion pump that was incorporated into a non-restraining body cast. A constant infusion was started of the control or test fluids at the volume of 20 to 30 ml/day. Oral fluids and diet were allowed ad lib. Four days later, the animals were administered 0.2 mCi/kg (CH3 -^3 H)-thymidine with specific activity of 80-90 Ci/MMol (New England Nuclear, Boston). Two hours later, the dogs were anesthetized and killed.
For studies of the organelles, small cubes of each hepatic sample were taken for electron microscopy. The tissue was post-fixed in glutaraldehyde followed by osmic acid. After embedding in Polarbed. 812 resin, ultrathin sections were cut, stained with lead citrate and examined in a Philip's 300 electron microscope. Measurements of the organelles were made on electron micrographs by Loud's method (Loud, J Cell Biol, 1968, 37:27-46).
(§2) Results are expressed as mean±standard deviation (SD). The Student's t-test was employed in individual experimental groups to compare differences between right and left lobes or between groups. A p value less than 0.05 was considered to be significant.

hepatocytes in culture = conditions: literature (Francavilla et al); cited from earlier work
hepatocytes = assay: Eck fistula dogs, left portal vein infusion: hepatocyte size and 3H-thymidine labelled hepatocytes; format: in vivo, dog (beagle); conditions: for Labeled Hepatocytes/1000 Hepatocytes, Left / Hepatocytes Size Units, Left: left (infused) lobe; for Labeled Hepatocytes/1000 Hepatocytes, Left / Hepatocytes Size Units, Left / Hepatocytes Size Units, Right / Labeled Hepatocytes/1000 Hepatocytes, Right: mean +/- SD; for Hepatocytes Size Units, Right / Labeled Hepatocytes/1000 Hepatocytes, Right: right lobe
Experimental: as §1
Specimens were taken from 2 of the right hepatic lobes and 2 of the left lobes, fixed in 10% buffered formalin, and stained using standard hematoxylin-eosin staining techniques.
Autoradiography was carried out using Ilford K5 nuclear track liquid emulsion and an exposure time of at least 30 days. The number of mitoses, as an index of hepatocyte regeneration, was determined by counting the number of ^3 H-thymidine labelled nuclei per 1000 hepatocytes. […] In normal, unaltered dogs, about 1.6±0.4 mitosis per 1000 hepatocytes are present in the liver, and midzonal hepatocytes are about 0.17±0.01 size-units (Starzl et al, Lancet, 1979, 1:127-130). The exceptional reproducibility of these values and the small standard deviations make it easy to identify changes caused by operations such as Eck fistula, drugs, or other experimental variables.
as §2

[1] = tested on: acute and chronic liver allograft rejection; conditions: humans; compared with previous compounds; cited from earlier work
[2] = 1.0 mg/kg/day, right lobe, mean +/- SD
[3] = infused into the left portal vein

Compound: C=CCC1C=C(C)CC(C)CC(OC)C2OC(O)(C(=O)C(=O)N3CCCCC3C(=O)OC(C(C)=CC3CCC(O)C(OC)C3)C(C)C(O)CC1=O)C(C)CC2OC (centres unmarked) [FK 506]
- Organelle volume in average midzonal hepatocytes, Lipids, Left (midzonal hepatocytes; 1.0 mg/kg/day, left (infused) lobe, mean +/- SD, left vs right p 0.0044): 15.6 +/- 2.8 uM^3
- Organelle volume in average midzonal hepatocytes, Microbodies, Left (midzonal hepatocytes; 1.0 mg/kg/day, left (infused) lobe, mean +/- SD, left vs right p 0.1111): 94.2 +/- 10.4 uM^3
- Organelle volume in average midzonal hepatocytes, Mitochondria, Left (midzonal hepatocytes; 1.0 mg/kg/day, left (infused) lobe, mean +/- SD, left vs right p 0.1996): 1284.8 +/- 178.9 uM^3
- Area of rough endoplasmic reticulum per average midzonal hepatocyte, Left (midzonal hepatocytes; 1.0 mg/kg/day, left (infused) lobe, mean +/- SD, p vs vehicle 0.0000, left vs right 0.0002): 32091 +/- 1225 uM^2
- Area of smooth endoplasmic reticulum per average midzonal hepatocyte, Left (midzonal hepatocytes; 1.0 mg/kg/day, left (infused) lobe, mean +/- SD, p vs vehicle 0.0574, left vs right 0.0024): 17876 +/- 642 uM^2
- lysosomes in right lobar hepatocytes (midzonal hepatocytes; 1 mg/kg/day, p<0.05): reduced
- microbodies in right lobar hepatocytes (midzonal hepatocytes; 1 mg/kg/day, p=0.07): reduced
- Organelle volume in average midzonal hepatocytes, Lipids, Right (midzonal hepatocytes; [2]): 47.8 +/- 11.3 uM^3
- Organelle volume in average midzonal hepatocytes, Lysosomes, Right (midzonal hepatocytes; [2]): 160.0 +/- 23.8 uM^3
- Organelle volume in average midzonal hepatocytes, Microbodies, Right (midzonal hepatocytes; [2]): 136.6 +/- 41.3 uM^3
- Organelle volume in average midzonal hepatocytes, Mitochondria, Right (midzonal hepatocytes; [2]): 1440.6 +/- 318.7 uM^3
- Area of rough endoplasmic reticulum per average midzonal hepatocyte, Right (midzonal hepatocytes; 1.0 mg/kg/day, right lobe, mean +/- SD, p vs vehicle 0.0003): 20839 +/- 1612 uM^2
- Area of smooth endoplasmic reticulum per average midzonal hepatocyte, Right (midzonal hepatocytes; 1.0 mg/kg/day, right lobe, mean +/- SD, p vs vehicle 0.0858): 23154 +/- 193 uM^2
- mitochondria (midzonal hepatocytes; FK 506-infused lobes): neither enlarged (Table V) nor abnormal
- number of microbodies, lysosomes and small lipid containing vacuoles (midzonal hepatocytes; FK 506-infused lobes): near normal levels
- amount of rough endoplasmic reticulum (midzonal hepatocytes; infused lobes): restored relative to controls
- dilatation and disruption of the cisternae (midzonal hepatocytes; infused lobes): minimal
- ultrastructure of hepatocytes exposed to infused FK 506 (midzonal hepatocytes; left lobes, even at the smallest doses): almost normal even at the smallest doses
- changes in the hepatocytes in the right lobes (midzonal hepatocytes; low doses of FK 506, compared with controls): did not differ greatly from those seen in the controls
- direct effect on hepatocytes in culture (hepatocytes in culture): no direct effect
- Labeled Hepatocytes/1000 Hepatocytes, Left (hepatocytes; 0.01 mg/kg/day, p vs vehicle 0.0044, left vs right 0.0167): 5.43 +/- .35 Labeled Hepatocytes/1000 Hepat
- Hepatocytes Size Units, Left (hepatocytes; 0.01 mg/kg/day, p vs vehicle 0.5782, left vs right 0.0004): .111 +/- .008 Size Units
- Hepatocytes Size Units, Right (hepatocytes; 0.01 mg/kg/day, p vs vehicle 0.1860): .100 +/- .007 Size Units
- Labeled Hepatocytes/1000 Hepatocytes, Right (hepatocytes; 0.01 mg/kg/day, p vs vehicle 0.2477): 4.77 +/- .60 Labeled Hepatocytes/1000 Hepat
- Labeled Hepatocytes/1000 Hepatocytes, Left (hepatocytes; 0.1 mg/kg/day, p vs vehicle 0.0005, left vs right 0.0001): 5.98 +/- .43 Labeled Hepatocytes/1000 Hepat
- Hepatocytes Size Units, Left (hepatocytes; 0.1 mg/kg/day, p vs vehicle 0.0065, left vs right 0.0000): .137 +/- .008 Size Units
- Labeled Hepatocytes/1000 Hepatocytes, Right (hepatocytes; 0.1 mg/kg/day, p vs vehicle 0.0086): 5.19 +/- .38 Labeled Hepatocytes/1000 Hepat
- Hepatocytes Size Units, Right (hepatocytes; 0.1 mg/kg/day, p vs vehicle 0.8351): .113 +/- .006 Size Units
- Labeled Hepatocytes/1000 Hepatocytes, Left (hepatocytes; 1.0 mg/kg/day, p vs vehicle 0.0001, left vs right 0.0015): 9.13 +/- .89 Labeled Hepatocytes/1000 Hepat
- Hepatocytes Size Units, Left (hepatocytes; 1.0 mg/kg/day, p vs vehicle 0.0004, left vs right 0.0009): .162 +/- .012 Size Units
- Hepatocytes Size Units, Right (hepatocytes; 1.0 mg/kg/day, p vs vehicle 0.0503): .134 +/- .006 Size Units
- Labeled Hepatocytes/1000 Hepatocytes, Right (hepatocytes; 1.0 mg/kg/day, p vs vehicle 0.0510): 5.37 +/- .78 Labeled Hepatocytes/1000 Hepat
- changes in directly infused lobes compared with non-infused lobes (hepatocytes; all doses): significantly greater in the directly infused lobes at all doses
- changes in non-infused lobes compared to vehicle controls (hepatocytes; high FK 506 doses): significantly effected compared to the vehicle controls
- atrophy of the left lobar hepatocytes (hepatocytes; [3]): prevented in proportion to the dose
- rate of mitoses (hepatocytes; [3]): increased
- evidence of drug toxicity in infused lobes (hepatocytes; lobes infused with FK 506): no evidence of drug toxicity
- acute and chronic liver allograft rejection [1]: prevent acute and chronic liver allograft rejection in humans more reliably and completely than has been possible with previous compounds
